Source: patent US12564582B2 (Prilenia Neurotherapeutics Ltd., priority 2016, dated 2026)
Like-named read-outs stand apart in the source and are kept apart here.

Tests used:
[1] = system: patients with Huntington's disease; conditions: for Δ to placebo, change from baseline in UHDRS TMS Gait and Balances: Week 52; for Δ to placebo, change from baseline in UHDRS TMS Gait and Balance: BL TFC≥7
Text: • CIBIC-Plus global score as compared to baseline • Change from baseline in the PDS score • Change from baseline in UHDRS FA • CGIC as compared to baseline • Change from baseline in UHDRS TFC • Change from baseline in UHDRS IS Global/Functional Scales: • Change from baseline in HD QOL • Change from baseline in Walk-12 scale TMS Subscores: • Change from baseline in hand movement score (defined as the sum of UHDRS domains finger taps, pronate-supinate hands and luria [fist-hand-palm test]) • Change from baseline in Gait and balance score (defined as the sum of UHDRS domains gait, tandem walking and retropulsion pull test) • Change from baseline in UHDRS mMS (defined as the sum of UHDRS domains dysarthria, tongue protrusion, finger taps, pronate-supinate hands, luria, rigidity, bradykinesia, gait, tandem walking, retropulsion pull test) • Change from baseline in UHDRS Chorea • Change from baseline in UHDRS Dystonia • Responders, defined as patients with UHDRS TMS change from baseline≤0 Other Motor Assessments: • Change from baseline in Q Motor measurements including digitomotography (speeded index finger tapping), dysdiadochomotography (pronation/supination hand tapping), manumotography and choreomotography (grip force and chorea analysis) and pedomotography (speeded foot tapping) • Change from baseline in the TUG test Cognitive/Psychiatric Assessments: • Change from baseline in HD-CAB brief: SDMT, Emotion Recognition, Trail Making Test, HVLT-R, Paced Tapping at 3 Hz, OTS. • Change from baseline in PBA-s Safety Variables and Endpoints
The gait and balance score is defined as the sum of UHDRS domains gait, tandem walking and retropulsion pull test.

[2] = system: L-DOPA-induced dystonia
Text: Data are median (FIG. 19A) with individual values (FIG. 19BB). N=8 for all treatment groups. */**/*** represents P<0.05, P<0.01 or P<0.001 cf. vehicle-treatment. 2-way RM ANOVA (FIG. 19A) with Holm-Sidak's test or Friedman test with Dunn's test (FIG. 19B).

[3] = system: patients with Huntington's disease; conditions: for Δ to placebo, change from baseline in Q-Motor: Tap-Speed-Inter-Onset-interval-MN-Hand: Week 52
Text: The patient places their hand on a hand rest with their index finger positioned above a force-transducer. Recordings start after practice runs. The patient is instructed to finger tap as fast as possible between 2 auditory cues. The beginning of a tap is defined as a rise of the force by 0.05 N above maximal baseline level. The tap ends when it drops to 0.05 N before the maximal baseline level is reached again. The duration and variability of tap durations (TD), inter onset intervals (IOI), inter peak intervals (IPI), and inter tap intervals (ITI) are the exploratory outcome measures for speeded tapping. In addition, variability of peak tapping forces (TF) is calculated as coefficient of variation, and the tapping frequency (Freq), i.e., the number of taps between the onsets of the first and the last tap divided by the time in between, is determined. Five trials of 10 seconds duration are performed with each hand.

[4] = system: neuroblastoma cell line; conditions: SIR-dependent manner (Geva 2016); cited from earlier work

CCCN1CCC(c2cccc(S(C)(=O)=O)c2)CC1 [pridopidine, 4-[3-(methylsulfonyl)phenyl]-1-propyl-piperidine]
Δ to placebo, change from baseline in UHDRS TMS Gait and Balances ([1]; 67.5 mg bid, all pridopidine treated patients): −0.05 | Δ to placebo, change from baseline in UHDRS TMS Gait and Balance ([1]; 67.5 mg bid, week 26): −0.37 | Δ to placebo, change from baseline in UHDRS TMS Gait and Balance ([1]; 67.5 mg bid, week 52): −0.43 | Δ to placebo, change from baseline in UHDRS TMS Gait and Balances ([1]; 90 mg bid, Stage 1 BL TFC 11-13): −0.49 | Δ to placebo, change from baseline in UHDRS TMS Gait and Balances ([1]; 90 mg bid, all pridopidine treated patients): −0.01 | Δ to placebo, change from baseline in UHDRS TMS Gait and Balance ([1]; 90 mg bid, week 26): −0.62 | Δ to placebo, change from baseline in UHDRS TMS Gait and Balance ([1]; 90 mg bid, week 52): −0.28 | Δ to placebo, change from baseline in UHDRS TMS Gait and Balances ([1]; 112.5 mg bid, Stage 1 BL TFC 11-13): −0.4 | Δ to placebo, change from baseline in UHDRS TMS Gait and Balances ([1]; 112.5 mg bid, all pridopidine treated patients): 0.04 | Δ to placebo, change from baseline in UHDRS TMS Gait and Balance ([1]; 112.5 mg bid, week 26): −0.49 | Δ to placebo, change from baseline in UHDRS TMS Gait and Balance ([1]; 112.5 mg bid, week 52): −0.09 | levels of dystonia, significance cf. LDh-vehicle ([2]; 15 mg/kg, 1 h epoch 1): ns | levels of dystonia, significance cf. LDh-vehicle ([2]; 15 mg/kg, 1 h epoch 2): ns | levels of dystonia, significance cf. LDh-vehicle ([2]; 15 mg/kg, 1 h epoch 3): ns | levels of dystonia, significance cf. LDh-vehicle ([2]; 15 mg/kg, 1 h epoch 4): ns | levels of dystonia, significance cf. LDh-vehicle ([2]; 15 mg/kg, 1 h epoch 5): ns | levels of dystonia, significance cf. LDh-vehicle ([2]; 15 mg/kg, 1 h epoch 6): ns | levels of dystonia, significance cf. LDh-vehicle ([2]; 20 mg/kg, 1 h epoch 1): * (P<0.05) | levels of dystonia, significance cf. LDh-vehicle ([2]; 20 mg/kg, 1 h epoch 2): ns | levels of dystonia, significance cf. LDh-vehicle ([2]; 20 mg/kg, 1 h epoch 3): ns | levels of dystonia, significance cf. LDh-vehicle ([2]; 20 mg/kg, 1 h epoch 4): ns | levels of dystonia, significance cf. LDh-vehicle ([2]; 20 mg/kg, 1 h epoch 5): ns | levels of dystonia, significance cf. LDh-vehicle ([2]; 20 mg/kg, 1 h epoch 6): ns | median levels of dystonia ([2]; 20 mg/kg, first hour): between moderate and marked | levels of dystonia, significance cf. LDh-vehicle ([2]; 30 mg/kg, 1 h epoch 1): ** (P<0.01) | levels of dystonia, significance cf. LDh-vehicle ([2]; 30 mg/kg, 1 h epoch 2): *** (P<0.001) | levels of dystonia, significance cf. LDh-vehicle ([2]; 30 mg/kg, 1 h epoch 3): * (P<0.05) | levels of dystonia, significance cf. LDh-vehicle ([2]; 30 mg/kg, 1 h epoch 4): ns | levels of dystonia, significance cf. LDh-vehicle ([2]; 30 mg/kg, 1 h epoch 5): ns | levels of dystonia, significance cf. LDh-vehicle ([2]; 30 mg/kg, 1 h epoch 6): ns | median levels of dystonia (printed dyskinesia) ([2]; 30 mg/kg, cumulated over 0-2 h): below mild (non-disabling) | reduction of median levels of dystonia compared to LDh-vehicle ([2]; 30 mg/kg, cumulated over 0-2 h): 72% | median levels of dystonia ([2]; 30 mg/kg, first, second and third hours): mild to moderate | levels of L-DOPA-induced dystonia evoked by LDh ([2]; 15, 20, 30 mg/kg combined with LDh): significant and dose-dependent reduction | Δ to placebo, change from baseline in Q-Motor: Tap-Speed-Inter-Onset-interval-MN-Hand ([3]; 45 mg bid, FAS): -0.0402 s | Δ to placebo, change from baseline in Q-Motor: Tap-Speed-Inter-Onset-interval-MN-Hand ([3]; 45 mg bid, HD1 and HD2 patients): -0.0351 s | Δ to placebo, change from baseline in Q-Motor: Tap-Speed-Inter-Onset-interval-MN-Hand ([3]; 67.5 mg bid, FAS): 0.0152 s | Δ to placebo, change from baseline in Q-Motor: Tap-Speed-Inter-Onset-interval-MN-Hand ([3]; 67.5 mg bid, HD1 and HD2 patients): -0.0464 s | Q-Motor Tap Speed Inter Onset interval (IOI) ([3]; 90 mg bid): consistent and significant improvement from baseline | Q-Motor Tap-Speed-Frequency ([3]; 90 mg bid): consistent improvement from baseline | Δ to placebo, change from baseline in Q-Motor: Tap-Speed-Inter-Onset-interval-MN-Hand ([3]; 90 mg bid, FAS): -0.0064 s | Δ to placebo, change from baseline in Q-Motor: Tap-Speed-Inter-Onset-interval-MN-Hand ([3]; 90 mg bid, HD1 and HD2 patients): -0.0291 s | Δ to placebo, change from baseline in Q-Motor: Tap-Speed-Inter-Onset-interval-MN-Hand ([3]; 112.5 mg bid, FAS): -0.017 s | Δ to placebo, change from baseline in Q-Motor: Tap-Speed-Inter-Onset-interval-MN-Hand ([3]; 112.5 mg bid, HD1 and HD2 patients): -0.022 s | secretion of brain-derived neurotrophic factor (BDNF) [4]: enhances secretion
